# In patent US20230277597A1, “HAPLOIDENTICAL MIXED CHIMERISM FOR TREATING AUTOIMMUNE DISEASES” (CITY OF HOPE, priority 2020, published 2023):
# System: Foxp3^+ Treg cells
# Assay: In vivo Treg depletion with diphtheria toxin in Haplo-MC NOD mice carrying Foxp3^DTR
# Design: species or system mouse
# Details: for mice insulitis free in all the evaluated islets: 3 weeks after first injection
substance,measurement,setting,value
diphtheria toxin [DT],insulitis after depletion of donor-type or host-type Treg cells,"DT every 3 days for 21 days, H-2^b/g7 mixed chimeric NOD mice","significant but moderate recurrence of insulitis, without causing hyperglycemia"
same,reduction of donor-type Treg,"DT every 3 days for 21 days, donor cells carrying Foxp3^DTR",~95%
same,reduction of host-type Treg,"DT every 3 days for 21 days, host cells carrying Foxp3^DTR",~90%
same,mice insulitis free in all the evaluated islets,donor-type Treg depleted chimeric mice,50%
same,mice insulitis free in all the evaluated islets,host-type Treg depleted chimeric mice,33%
